Data reported in patent US8357659B2, “Method of treating pain or itching with APETx2 peptide toxin” (priority 2008, dated 2013).

Key:
[1] = target: T1, ASIC2a (Rattus norvegicus, UniProt Q62962); conditions: cited from earlier work
T1 sequence (Q62962 1-512): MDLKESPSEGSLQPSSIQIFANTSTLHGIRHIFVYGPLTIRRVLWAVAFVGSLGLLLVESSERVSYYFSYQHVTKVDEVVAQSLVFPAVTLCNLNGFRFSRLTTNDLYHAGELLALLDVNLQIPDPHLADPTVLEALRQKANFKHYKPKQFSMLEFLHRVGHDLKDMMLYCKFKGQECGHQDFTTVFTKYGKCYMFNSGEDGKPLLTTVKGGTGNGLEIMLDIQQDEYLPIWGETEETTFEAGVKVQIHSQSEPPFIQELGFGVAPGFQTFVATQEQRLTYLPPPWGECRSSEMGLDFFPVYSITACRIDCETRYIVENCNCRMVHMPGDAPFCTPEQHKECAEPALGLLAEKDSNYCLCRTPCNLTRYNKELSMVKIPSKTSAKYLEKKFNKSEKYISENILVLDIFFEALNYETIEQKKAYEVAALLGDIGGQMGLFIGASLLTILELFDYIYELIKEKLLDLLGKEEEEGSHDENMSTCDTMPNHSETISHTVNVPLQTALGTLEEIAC

[2] = target: T2, human ASIC3 channels (Homo sapiens, UniProt Q9UHC3); experiment: Whole cell patch clamp of human ASIC3 in transfected F-11 cells; format: cell-based; conditions: APETx2 at 1 μM; acidification pH 8.0 to pH 7.0
T2 construct: expressed in transfected cells; host or cells: F-11 cells, vector pASIC3h-IRES-EGFP, JetPEI
T2 sequence (Q9UHC3 1-531): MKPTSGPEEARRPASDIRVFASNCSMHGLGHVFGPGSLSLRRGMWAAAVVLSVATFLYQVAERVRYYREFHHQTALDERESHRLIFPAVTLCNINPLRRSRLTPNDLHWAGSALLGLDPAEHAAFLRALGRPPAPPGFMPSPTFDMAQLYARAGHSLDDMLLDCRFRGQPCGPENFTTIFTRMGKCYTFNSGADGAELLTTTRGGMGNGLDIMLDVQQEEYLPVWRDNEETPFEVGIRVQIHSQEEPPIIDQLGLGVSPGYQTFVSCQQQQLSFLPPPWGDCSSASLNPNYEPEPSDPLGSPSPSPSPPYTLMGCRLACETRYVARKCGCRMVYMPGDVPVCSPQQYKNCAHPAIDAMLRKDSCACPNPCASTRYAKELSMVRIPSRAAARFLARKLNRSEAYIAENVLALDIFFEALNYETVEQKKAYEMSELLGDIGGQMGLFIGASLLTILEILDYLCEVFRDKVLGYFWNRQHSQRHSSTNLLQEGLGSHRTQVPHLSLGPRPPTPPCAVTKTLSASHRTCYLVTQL
Method: F-11 cells (refs. 44, 45, 46, 47]) were cultured in 5% of CO2 at a density of 50,000 cells per 35 mm Petri dish. The culture medium contained HAM F-12 medium (Invitrogen) supplemented with 15% foetal bovine serum (ICN Biomedicals), 1×HAT (sodium hypoxanthine, aminopterine and thymidine), 200 μg/ml of allo-4-hydroxy-L-proline (Sigma-Aldrich) and 1% antibiotics. One day after seeding, the cells were transfected with ASIC1a or ASIC3 DNAc (rat clones) using Lipofectamine™ (Invitrogen) according to the manufacturer's instructions using the vectors pCI-ASIC1ar+pIRES2-EGFP (ratio 1:2) or pCI-ASIC3r+pIRES2-EGFP (ratio 1:10) ([ref. 36]), quoted above). For the experiments concerning the human ASIC3 clone (refer to experiments on the effects of the APETx2 toxin on the human form of the ASIC3 channel), the cells were transfected with the DNAc of human ASIC3 using the transfection agent JetPEI (Polypus Transfection) according to the manufacturer's instructions with the aid of the vector pASIC3h-IRES-EGFP. […]
The whole cell configuration of the patch clamp method was used ([ref. 48]) in order to measure the membrane currents (imposed voltage) or the membrane potentials (imposed current). […] The data were sampled at 10 kHz, digitised using a Digidata 1322A A-D/D-A converter (Axon Instruments) and recorded on a hard disk using pClamp software (version 9.2.0.11, Axon Instruments). […]

[3] = target: T3, ASIC1a (Rattus norvegicus, UniProt P55926); conditions: cited from earlier work
T3 sequence (P55926 1-526): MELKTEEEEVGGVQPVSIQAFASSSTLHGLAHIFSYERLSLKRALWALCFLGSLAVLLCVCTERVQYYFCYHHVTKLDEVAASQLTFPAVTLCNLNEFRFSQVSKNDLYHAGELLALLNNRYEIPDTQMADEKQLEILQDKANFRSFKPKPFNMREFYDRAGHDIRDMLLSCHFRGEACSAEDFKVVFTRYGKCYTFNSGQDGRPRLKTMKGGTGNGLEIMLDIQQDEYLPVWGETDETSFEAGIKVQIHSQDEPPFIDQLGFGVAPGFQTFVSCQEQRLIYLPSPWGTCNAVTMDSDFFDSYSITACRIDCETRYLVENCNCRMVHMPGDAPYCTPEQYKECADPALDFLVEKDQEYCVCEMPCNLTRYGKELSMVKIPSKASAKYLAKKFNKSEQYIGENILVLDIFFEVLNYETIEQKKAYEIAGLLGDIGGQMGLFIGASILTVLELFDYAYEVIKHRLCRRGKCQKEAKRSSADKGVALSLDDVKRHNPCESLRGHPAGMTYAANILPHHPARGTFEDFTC

Which results are given for “peptide of 42 amino acids (SEQ ID NO: 3), three disulphide bonds, from sea anemone Anthopleura elegantissima; blocks ASIC3 [APETx2]”?
effect on ASIC2a isoform [1]: does not have any effect; amplitude of the human ASIC3 currents [2]: significantly reduced; effect on ASIC1a isoform [3]: does not have any effect
